Measurements as given in paper PMC4958397, “Synthesis, antibacterial and antiproliferative potential of some new 1-pyridinecarbonyl-4-substituted thiosemicarbazide derivatives” (Medicinal Chemistry Research, 2016).
In brackets after ≈: the same amount, converted by molar mass. Where two headings read alike, the source gives them in different places.

Assays:
Assay type in all cases: cell-based
Cytotoxicity MTT assay = settings: human, BJ cells (normal human skin fibroblasts), read-out: CC50 (concentration required for a 50 % reduction of cell viability)
Protocol: (§1) Normal human skin fibroblasts (BJ), human hepatocellular carcinoma (HepG2) and human breast adenocarcinoma (MCF-7) were obtained from American Type Culture Collection (ATCC, England, UK). The cells were cultured in Eagle’s minimum essential medium (EMEM, ATCC) supplemented with 10 % fetal bovine serum (FBS, PAA Laboratories), 100 U/mL penicillin and 100 μg/mL streptomycin (Sigma-Aldrich). In the case of the MCF-7 cell line, the culture medium was additionally supplemented with 0.01 μg/mL of human recombinant insulin (Sigma-Aldrich). The cells were grown in 75-cm^2 flasks and maintained at 37 °C in a humidified atmosphere of 5 % CO2 and 95 % air.
In order to determine the cytotoxicity, BJ cells were seeded in flat-bottom 96-well plates in 100 μL of a complete growth medium at a concentration of 1.7 × 10^4 cells/well and incubated for 24 h at 37 °C in a humidified atmosphere of 5 % CO2. Immediately before drug treatment, the synthesized compounds (1, 2, 4, 5, 6, 7, 10) were dissolved in dimethyl sulfoxide (DMSO, Sigma-Aldrich) and then diluted in cell culture medium supplemented with 2 % FBS. […] After incubation, the growth medium was replaced with 100 μL of the appropriate serial dilutions of the investigated compounds. Untreated cells were used as negative controls, and different concentrations of DMSO were used as the solvent control. The cell cultures were incubated at 37 °C for 24 h. The cytotoxicity was estimated using the 3-(4,5-dimethylthiazol-2-yl)-2,5-diphenyltetrazolium bromide (MTT) assay as described by Mosmann with some modifications (Mosmann, [1983]). Briefly, the cells were incubated for 3 h with 25 μL of MTT solution ([…] in PBS buffer) per well. The MTT assay is a rapid colorimetric method based on the conversion of mitochondrial succinate dehydrogenase from yellow, soluble tetrazolium salt to blue formazan crystals to determine the number of viable cells. In order to dissolve formazan crystals in live cells, 100 μL of SDS-HCl solution (10 % SDS in 0.01 N HCl) was added per well. After overnight incubation, absorbance was measured at 570 nm using microplate reader (BioTek ELx50). The MTT assay was repeated in three independent experiments performed in octuplicates. The half-maximal cytotoxic concentration (CC50) was defined as the compound concentration (μg/mL) required to reduce cell viability to 50 %. Therapeutic index (TI) is a widely accepted parameter to represent the specificity of antibacterial agents for human (Begg et al., [1999]). In this study, the in vitro TI values were calculated as the ratio of CC50 (cytotoxic activity) and MIC (antibacterial activity); thus, greater values of in vitro therapeutic index indicate safer specificity for eukaryotic cells.
(§2) The data were analyzed using one-way ANOVA test followed by Dunnett’s test. Differences were considered as significant with p < 0.01 (GraphPad Prism 5, Version 5.04 Software). The values of CC50 and IC50 were calculated via 4-parameter nonlinear regression analyses using GraphPad Prism 5, version 5.04.

[1] = system: BJ (normal human skin fibroblasts); assay: Cell proliferation MTT assay; settings: 96 h; for IC50: Homo sapiens, Skin fibroblast, MTT, mean ± SD, read-out: IC50, antiproliferative activity, BJ
Protocol: as §1
(§3) In order to evaluate cell proliferation, the cells were seeded in flat-bottom 96-well plates in 100 μL of a complete growth medium at a concentration of 2 × 10^3 cells/well (BJ), 1.5 × 10^4 cells/well (HepG2) and 2.5 × 10^4 cells/well (MCF-7) and incubated for 24 h at 37 °C in a humidified atmosphere of 5 % CO2. Before drug exposure, the synthesized compounds (1–10) were dissolved in DMSO and then diluted in a complete culture medium supplemented with 10 % FBS. Subsequently, the growth medium was gently removed and the cells were exposed to 100 μL of serial dilutions of the investigated compounds at concentrations ranging from 0.05 to 200 μg/mL. Untreated cells were used as negative controls, and different concentrations of DMSO were used as the solvent control. After 96-h incubation at 37 °C in a humidified atmosphere of 5 % CO2, cell proliferation was assessed using the MTT test as described previously (Cytotoxicity assay). The MTT assay was repeated in three independent experiments in quadruplicates. The half-maximal inhibitory concentration (IC50) was defined as the compound concentration (μg/mL) required to inhibit cell proliferation to 50 %.
as §2, with “The results of the in vitro cell culture experiments were presented as mean values ± standard deviation (SD) or as mean values ± standard error of the mean (SEM). The data” for “The data”

[2] = system: HepG2 (human hepatocellular carcinoma); assay: Cell proliferation MTT assay; settings: 96 h; for IC50: Homo sapiens, HepG2, MTT, read-out: IC50, antiproliferative activity, HepG2
Protocol: as §1, §3
as §2, with “The results of the in vitro cell culture experiments were presented as mean values ± standard deviation (SD) or as mean values ± standard error of the mean (SEM). The data” for “The data”

[3] = system: MCF-7 (human breast adenocarcinoma); assay: Cell proliferation MTT assay; settings: MCF7, 96 h, read-out: IC50, antiproliferative activity, MCF-7
Protocol: as §1, §3
as §2, with “The results of the in vitro cell culture experiments were presented as mean values ± standard deviation (SD) or as mean values ± standard error of the mean (SEM). The data” for “The data”

[4] = 10 μg/mL, proliferation reduced to

| Compound | CC50 at 24 h (Cytotoxicity MTT assay) | IC50 [1] | IC50 ([2]; mean ± SD) | IC50 ([3]; mean ± SD) | further results |
| --- | --- | --- | --- | --- | --- |
| [H]/N=C(\N/C(=N/[H])NCCCCCCNC(=N)NC(=N)Nc1ccc(Cl)cc1)Nc1ccc(Cl)cc1 [CLX, chlorhexidine digluconate, reference compound] | 8.46 µg/mL |  |  |  |  |
| O=C(NNC(=S)Nc1ccccc1Cl)c1ccccn1 [Compound 2, 4-(2-Chlorophenyl)-1-(pyridin-2-yl)carbonylthiosemicarbazide] |  | 3.06 ± 0.46 µg/mL (≈ 9.97 µM) | 2.71 ± 0.23 µg/mL | 14.8 ± 1.03 µg/mL | cell proliferation compared to the control, BJ [1, 4]: 32%; cell proliferation compared to the control, HepG2 [2, 4]: 18.9% |
| O=C(NNC(=S)Nc1ccc(Cl)cc1Cl)c1ccccn1 [Compound 4, 4-(2,4-Dichlorophenyl)-1-(pyridin-2-yl)carbonylthiosemicarbazide] | 19.5 µg/mL (≈ 57.1 µM) | 1.86 ± 0.44 µg/mL (≈ 5.45 µM) | 2.09 µg/mL | 8.63 µg/mL | IC50 ([2]; same value in µM): 6.12 µM; IC50 ([3]; same value in µM): 25.3 µM |
| CSc1ccc(NC(=S)NNC(=O)c2cccnc2)cc1 [Compound 6, 4-(4-Methylthiophenyl)-1-(pyridin-3-yl)carbonylthiosemicarbazide] | 917 µg/mL (≈ 2880 µM) |  |  |  |  |
| O=C(NNC(=S)Nc1ccc(Cl)cc1Cl)c1cccnc1 [Compound 7, 4-(2,4-Dichlorophenyl)-1-(pyridin-3-yl)carbonylthiosemicarbazide] | 88.3 µg/mL (≈ 259 µM) |  |  |  |  |
| CCOc1ccc2nc3cc(N)ccc3c(N)c2c1 [Ethacridine lactate, ethacridine lactate, reference compound] | 6.88 µg/mL |  |  |  |  |
